Test results reported in PMC12562379, “Facile Synthesis of N-vinylindoles via Knoevenagel Condensation: Molecular Features and Biological Activities” (International Journal of Molecular Sciences, 2025).
In brackets after ≈: the same amount, converted by molar mass. Like-named read-outs stand apart in the source and are kept apart here.

Legend:
[1] = molecular target: T1, AGE2-BSA/sRAGE interaction (Homo sapiens, UniProt Q15109); experiment: ELISA AGE2-BSA/sRAGE inhibitory screening; assay type: binding
T1 construct: purchased Creative BioMart
Protocol: The in vitro inhibitor screening of AGE2 (glyceraldehyde-modified AGE)-sRAGE interaction (soluble RAGE) was performed using a 96-well AGE-BSA-coated plate (Creative BioMart® ELISA kit, Shirley, NY, USA), according to the manufacturer’s instructions. 100 UA/mL soluble RAGE (sRAGE) was incubated with 100 μM of the tested compounds or 0.05% DMSO as a negative control on an AGE2-BSA-coated plate at room temperature for 60 min, shaking at 300 rpm on an orbital microplate shaker. After incubation, the wells were washed 4 times with wash buffer and horseradish peroxidase (HRP)-labeled anti-RAGE antibody was added and the plate was further incubated at room temperature for 60 min, shaking at 300 rpm on an orbital microplate shaker. After incubation, the wells were washed 4 times with wash buffer and the Substrate Reagent was added to each well. After an incubation at room temperature for 5 min, the HRP-labeled antibody sRAGE-AGE complex was then detected by measuring the absorbance at 450 nm using the microplate reader Varioskan (Thermo Fischer Scientific). These experiments were repeated two times.

C. glabrata ATCC 2001 = experiment: Microbroth dilution assay; assay type: cell-based, Candida glabrata; details: Nakaseomyces glabratus, ATCC2001
Protocol: (§1) The minimum inhibitory concentration (MIC) and minimum bactericidal/fungicidal concentration (MBC/MFC) of the tested compounds were determined by the microbroth dilution technique using 96-well plates based on the methodology described in the EUCAST (European Committee on Antimicrobial Susceptibility Testing) standards. Reference and clinical strains of Gram-positive (Staphylococcus aureus ATCC 6538, Staphylococuccus aureus MRSA 6347) and Gram-negative (Escherichia coli ATCC 8739) bacteria, and yeast (Candida albicans ATCC 10231, Candida glabrata ATCC 2001) were used for the assay. The studies were carried out in the Mueller–Hinton (MH) broth for bacteria and RPMI 1640 broth + MOPS (Sigma-Aldrich, Poland) buffer in the case of yeast. The dry test samples were dissolved in DMSO (dimethyl sulfoxide), resulting in a final concentration of 15 mg/mL, and then diluted in a geometric progression. Ampicillin (Sigma-Aldrich, Poland) acted as a control sample (512 to 4 µg/mL) for bacteria and ketoconazole (128 to 1 µg/mL) (Sigma-Aldrich, Poland) acted as a control sample for yeast. The cultures of microorganisms were prepared by transferring cells from the stock cultures to tubes with the appropriate broth and incubated with agitation in an aerobic atmosphere for 18 ± 2 h at 35 ± 1 °C; next, they were diluted to achieve an optical density corresponding to 5 × 105 (bacteria) or 2 × 105 (yeast) colony-forming units per mL (cfu/mL). An appropriate media (96 µL), along with the tested compounds with a final concentration range of 300–3.1 µg/mL (4 µL) and next microbial suspension (100 µL) were added to each well. Plates with samples were incubated in adequate conditions described above and microbial growth was assessed. […] (>90%; ketoconazole) but 50% (for other compounds) inhibits visible growth of yeasts. Next, as a control of microbial viability, 100 µL of the samples from each well without growth was inoculated on the MH or RPMI agar plates and incubated for 18 ± 2 h at 35 ± 1 °C and finally, the CFU was counted. The MBC/MFC was determined as the minimum concentration of compounds required to kill 99.9% the organisms.

SKOV-3 = experiment: MTT assay, cytotoxic activity; assay type: cell-based, human; details: Homo sapiens, SK-OV-3; SKOV-3, MTT, 24 h, n = 12
Protocol: (§2) The human ovarian SKOV-3, gastric adenocarcinoma AGS, cervical HeLa cell lines and non-cancerous keratinocytes HaCaT were obtained from the American Type Culture Collection (ATCC, Manassas, VA, USA). The cell lines were cultured in McCoy’s Medium, Dulbecco’s Modified Eagle’s Medium/F12, and DMEM, respectively (Merck Millipore, Burlington, MA, USA). Penicillin (100 units/mL), streptomycin ([…]), and 10% (v/v) fetal bovine serum (FBS) were added to all the media. The cells were incubated at 37 °C and 5% CO2.
(§3) To estimate the cytotoxic activity of the obtained compounds 2a-i, MTT assay was used. The cells (5 × 10^3 cells/well) were treated with the compounds in a range of concentrations 1–150 µg/mL. […] After 24 h, MTT solution (0.5 mg/mL) was added to the cells. Formazan crystals were dissolved in DMSO and the absorbance was measured with a microtiter plate reader (Epoch, BioTek Instruments, Winooski, VT, USA).

HeLa = experiment: MTT assay, cytotoxic activity; assay type: cell-based, human; details: Homo sapiens, 24 h, n = 12
Protocol: as §2, §3

AGS = experiment: MTT assay, cytotoxic activity; assay type: cell-based, human; details: Homo sapiens, 24 h, n = 12
Protocol: as §2, §3

[2] = test system: S. aureus ATCC 6535, S. aureus MRSA 12673 and other tested bacterial and yeast strains; experiment: Microbroth dilution assay, ranges stated over several strains; assay type: cell-based; details: range over S. aureus ATCC 6535 and MRSA 12673
SKOV-3 cells = experiment: Cell cycle assay (Muse Cell Analyzer); assay type: cell-based, human; details: SKOV-3, 48 h
Protocol: The SKOV-3 cells (5 × 10^5 cells/well) were seeded and incubated with compound 2i at concentrations of 2, 5, 10, 15, 30, and 60 µg/mL for 48 h. After treatment, Muse Cell Cycle Assay Kit and Muse Cell Analyzer (Merck Millipore, Burlington, MA, USA) were used to analyze the stained cells, according to the manufacturer’s instruction. The results are shown as percentage of the cells in each phase of cell cycle: subG0, G0/G1, S, and G2/M. The experiment was repeated in two independent repeats (in three repetitions).

S. aureus MRSA 12673 = experiment: Microbroth dilution assay; assay type: cell-based; details: Staphylococcus aureus, S. aureus MRSA 12673
C. albicans ATCC 10231 = experiment: Microbroth dilution assay; assay type: cell-based, Candida albicans
Protocol: as §1

S. aureus ATCC 6535 = experiment: Microbroth dilution assay; assay type: cell-based; details: Staphylococcus aureus, ATCC6535
E. coli ATCC 8739 = experiment: Microbroth dilution assay; assay type: cell-based; details: Escherichia coli, ATCC8739, E. coli ATCC 8739
Protocol: as §1

HaCaT = experiment: MTT assay, cytotoxic activity on non-cancerous keratinocytes; assay type: cell-based; details: Homo sapiens, 24 h, n = 12
Protocol: as §2, §3

T1 sequence (Q15109 23-342 limits assumed): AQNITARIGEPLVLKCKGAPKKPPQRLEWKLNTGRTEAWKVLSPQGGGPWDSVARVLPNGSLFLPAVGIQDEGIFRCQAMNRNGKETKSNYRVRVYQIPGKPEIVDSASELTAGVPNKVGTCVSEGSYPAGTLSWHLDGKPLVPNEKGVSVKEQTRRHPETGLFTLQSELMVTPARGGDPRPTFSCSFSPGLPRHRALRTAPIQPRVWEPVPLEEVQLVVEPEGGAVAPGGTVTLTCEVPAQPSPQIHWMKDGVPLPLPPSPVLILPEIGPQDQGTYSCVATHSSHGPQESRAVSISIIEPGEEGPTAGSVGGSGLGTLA

inhibition at 100 µM [1]: 49.4% | MIC (C. glabrata ATCC 2001): 60 µg/mL (≈ 178 µM) | MIC (range over strains) [2]: 15 to 30 µg/mL | MIC (S. aureus MRSA 12673; read-out: MIC): 30 µg/mL (≈ 88.9 µM) | MIC (C. albicans ATCC 10231; C. albicans ATCC 10231): 120 µg/mL (≈ 356 µM) | MIC (C. albicans ATCC 10231; Candida albicans, ATCC10231, C. albicans ATCC 10231, read-out: MIC): 60 µg/mL (≈ 178 µM) | MIC (S. aureus ATCC 6535): 15 µg/mL (≈ 44.5 µM) | MIC (E. coli ATCC 8739; read-out: MIC): > 240 µg/mL
SMILES: C(=C(\C1=NCCN1)n1ccc2ccccc21)/c1ccc2ccccc2c1 [Compound 2i, (Z)-1-[1-(4,5-dihydro-1H-imidazol-2-yl)-2-(naphthalen-2-yl)vinyl]-1H-indole]
MFC (C. glabrata ATCC 2001): 60 µg/mL (≈ 178 µM) | IC50 (SKOV-3): 2.45 ± 0.13 µg/mL (≈ 7.26 µM) | IC50 (HeLa): 2.03 ± 0.05 µg/mL (≈ 6.02 µM) | IC50 (AGS): 5.68 ± 0.41 µg/mL (≈ 16.8 µM) | MBC (range over strains) [2]: 30 µg/mL (≈ 88.9 µM) | cells in subG0 phase (SKOV-3 cells; 2 µg/mL): 28.10 ± 4.49% | cells in subG0 phase (SKOV-3 cells; 5 µg/mL): 49.00 ± 0.85% | cells in subG0 phase (SKOV-3 cells; 10 µg/mL): 82.73 ± 1.33% | cells in subG0 phase (SKOV-3 cells; 15 µg/mL): 91.67 ± 0.57% | cells in subG0 phase (SKOV-3 cells; 30 µg/mL): 95.30 ± 1.67% | cells in subG0 phase (SKOV-3 cells; 60 µg/mL): 99.83 ± 0.15% | cell cycle arrest (SKOV-3 cells; 2–60 µg/mL, all concentrations): strongly induced cell cycle arrest in subG0 phase | MBC (S. aureus MRSA 12673): 30 µg/mL (≈ 88.9 µM) | MFC (C. albicans ATCC 10231; C. albicans ATCC 10231): 120 µg/mL (≈ 356 µM) | MFC (C. albicans ATCC 10231; Candida albicans, ATCC10231, C. albicans ATCC 10231, read-out: MFC): 60 µg/mL (≈ 178 µM) | MBC (S. aureus ATCC 6535): 30 µg/mL (≈ 88.9 µM) | MBC (E. coli ATCC 8739): > 240 µg/mL | IC50 (HaCaT): 3.02 ± 0.18 µg/mL (≈ 8.95 µM)
